Data: patent US9000050B2, “SHIP1 modulators and related methods” (The University of British Columbia, priority 2010, dated 2015)
Converted amounts (≈) assume the structure as drawn.

Experiments:
His-hSHIP1 enzyme = molecular target: T1, His-hSHIP1 enzyme (Homo sapiens, UniProt Q92835); experiment: His-hSHIP1 enzyme activation assay (IP4 substrate, Biomol Green phosphate release); type: biochemical; conditions: percentage increase relative to background; concentrations ≦300 μM
T1 construct: His
T1 sequence (Q92835 1-1189): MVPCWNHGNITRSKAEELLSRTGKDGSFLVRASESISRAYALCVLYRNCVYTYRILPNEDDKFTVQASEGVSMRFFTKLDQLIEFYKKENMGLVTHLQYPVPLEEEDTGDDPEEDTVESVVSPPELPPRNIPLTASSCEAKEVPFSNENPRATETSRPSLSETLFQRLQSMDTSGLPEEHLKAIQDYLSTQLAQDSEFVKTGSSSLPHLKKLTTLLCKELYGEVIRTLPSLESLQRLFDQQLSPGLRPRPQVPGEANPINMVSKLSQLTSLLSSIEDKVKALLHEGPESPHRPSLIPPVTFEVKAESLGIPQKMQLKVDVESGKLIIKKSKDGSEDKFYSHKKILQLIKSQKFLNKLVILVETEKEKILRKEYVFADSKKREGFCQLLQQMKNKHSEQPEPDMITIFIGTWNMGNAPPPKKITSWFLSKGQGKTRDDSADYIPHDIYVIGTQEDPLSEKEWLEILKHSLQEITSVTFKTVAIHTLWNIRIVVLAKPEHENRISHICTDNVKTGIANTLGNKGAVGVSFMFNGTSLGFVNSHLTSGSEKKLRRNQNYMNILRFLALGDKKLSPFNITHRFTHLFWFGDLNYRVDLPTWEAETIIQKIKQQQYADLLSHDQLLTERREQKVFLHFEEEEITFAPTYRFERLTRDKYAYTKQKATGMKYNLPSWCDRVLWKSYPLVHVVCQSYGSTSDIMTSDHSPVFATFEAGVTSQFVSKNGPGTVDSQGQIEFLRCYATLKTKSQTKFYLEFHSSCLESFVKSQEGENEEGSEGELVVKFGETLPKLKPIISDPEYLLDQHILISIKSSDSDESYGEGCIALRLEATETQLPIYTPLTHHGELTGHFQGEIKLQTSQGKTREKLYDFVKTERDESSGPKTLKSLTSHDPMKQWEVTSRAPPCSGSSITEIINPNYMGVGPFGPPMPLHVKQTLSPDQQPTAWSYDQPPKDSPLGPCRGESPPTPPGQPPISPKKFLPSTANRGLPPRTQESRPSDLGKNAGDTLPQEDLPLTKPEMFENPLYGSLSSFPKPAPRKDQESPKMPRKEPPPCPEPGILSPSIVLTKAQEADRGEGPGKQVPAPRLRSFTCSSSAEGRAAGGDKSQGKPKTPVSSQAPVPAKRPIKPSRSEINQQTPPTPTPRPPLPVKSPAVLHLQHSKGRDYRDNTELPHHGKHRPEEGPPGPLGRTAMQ
Description: Test compounds are dissolved in 95% ethanol to form stock solutions. Before screening, the stock solutions are diluted with Phosphatase Assay Buffer (20 mM Tris-HCL, 10 mM MgCl2 pH 7.5, 0.02% Tween 20) to form working assay solutions that contain 10% ethanol. The assay is carried out on 96-well microtiter plates using a modified procedure of that reported by Ong et al., Blood 110, 1942-1949, 2007 and Yang et al., Org Lett 7, 1073-1076, 2005, both of which references are incorporated herein by reference in their entirety.
Each reaction contains 5 μL of His-hSHIP1 enzyme (15-20 ng), 10 μL of the substrate, 1,3,4,5-inositol tetrakisphosphate (IP4; 50 μM final), 5 μL of Phosphatase Assay Buffer, and 5 μL of test compound at various concentrations in 10% ethanol (0-300 μM final). Control blanks are also prepared by replacing His-hSHIP1 enzyme, IP4, or test compounds with Phosphatase Assay Buffer. After adding the reaction components in a 96-well microtiter plate on ice, the reaction is mixed by briefly shaking the plate vigorously. The reaction is then incubated at 37° C. for 15 min with gentle shaking followed by addition of 100 μL of Biomol Green Reagent (BIOMOL, PA, USA) to terminate the reaction. The free phosphate released from IP4 by His-hSHIP1 binds to the Biomol Green Reagent, which turns the dye to green color. After incubating the mixture for 20 min at room temperature for color development, the absorbance is read with SpectraMax Plus 96-well plate reader (Molecular Devices, Sunnyvale, Calif., USA) at a wavelength of 650 nm.
Percent (%) activation in Table 2 is expressed as a percentage increase relative to background. Scoring is expressed as follows: +(<25%); ++(≧25% but <50%); +++(≧50%).

[1] = Water solubility (24 h stirring in deionized water, HPLC); type: physicochemical; conditions: thermodynamic from solid, stirred 24 hours, read-out: Soluble Concentration
Description: Samples are weighed accurately in duplicate (˜3 mg each) in 4 mL glass vials. The appropriate amount of deionized water is added to obtain a final concentration of 6 mg/mL. A stir bar is placed in the vial and the two mixtures are stirred for 24 hours, after which the samples are filtered using a glass filter membrane. The resulting filtrate is centrifuged in a glass conical tube for 10 minutes at 10,000 rpm to sediment any precipitate that may have passed through the glass membrane. The supernatant is sampled for HPLC analysis. The concentration of the test compound is determined by HPLC using a six-point standard curve of the compound prepared in methanol.

Activation of His-hSHIP1 Enzyme, Scoring (percent activation) (His-hSHIP1 enzyme) | solubility at 24 h [1] | SMILES
++ (≧25% but <50%) | – | COc1cc2c(c(OC)c1)[C@@]1(C)CC[C@@H]3C(C)(C)[C@H](O)CC[C@@]3(C)[C@@H]1C2 (racemic) [5a/5b]
+++ (≧50%) | – | CC1(C)C(=O)CC[C@]2(C)[C@@H]1CC[C@]1(C)c3c(O)cc(O)cc3C[C@@H]21 (racemic) [7a/7b]
++ (≧25% but <50%) | – | CC1(C)[C@H](O)CC[C@]2(C)[C@@H]1CC[C@]1(C)c3c(O)cc(O)cc3C[C@@H]21 (racemic) [16a/16b]
++ (≧25% but <50%) | – | COc1cc(C)c2c(c1)C[C@H]1[C@]3(C)CC[C@@H](O)C(C)(C)[C@H]3CC[C@]21C (racemic) [17a/17b]
++ (≧25% but <50%) | – | Cc1cc(O)cc2c1[C@@]1(C)CC[C@@H]3C(C)(C)C(=O)CC[C@@]3(C)[C@@H]1C2 (racemic) [19a/19b]
+ (<25%) | 1400 µg/mL | CC1(C)[C@H]2CC[C@]3(C)c4c(O)cc(O)cc4C[C@H]3[C@]2(C)CC[C@@H]1N.Cl [8a•HCl, (3S,4aS,6aS,11aS,11bS)-3-Amino-4,4,6a,11b-tetramethyl-2,3,4,4a,5,6,6a,11,11a,11b-decahydro-1H-benzo[a]fluorene-7,9-diol Hydrochloride]
+ (<25%) | – | CC1(C)[C@@H](N)CC[C@]2(C)[C@H]3Cc4cc(O)cc(O)c4[C@]3(C)CC[C@@H]12 [Compound 9b]
– | 133 µg/mL (≈ 402 µM) | CC1(C)[C@@H](O)CC[C@]2(C)[C@H]3Cc4cc(O)cc(O)c4[C@]3(C)CC[C@@H]12 [Compound 16b, (3S,4aR,6aR,11aR,11bR)-2,3,4,4a,5,6,6a,11,11a,11b-decahydro-4,4,6a,11b-tetramethyl-1H-benzo[a]fluorene-3,7,9-triol]
